In general, kinetic solubility refers to the concentration staying in solution when a stock, usually in DMSO, is diluted into the medium.

SMILES strings stand for the structures. In brackets after ≈: the same amount, converted by molar mass.

Data on 51 compounds can be found in PubChem BioAssay AID1996.

For this series the following is noted: buffer; pH 7.4; 200.0 µM.
In the case of `O=C(C1CC(=O)N(c2ccccc2)C1)N1CCCCCC1` (stereo unspecified), the kinetic solubility was > 43 µg/mL. Then `CC(=O)Nc1ccc(NC(=O)CCc2ccc(C)o2)cc1`, with > 42.9 µg/mL; and `Cc1cc(C)c(S(=O)(=O)Nc2cnc3ccccc3c2)c(C)c1`, with 19.2 µg/mL (≈ 58.8 µM); and `CCCCn1c(=O)c(C(=O)Nc2ccccc2N)c(O)c2ccccc21`, with < 0.3 µg/mL.

As to `Cl.Clc1cccc(CNCCCSc2ncccn2)c1`, the solubility (kinetic) was > 49.5 µg/mL. The value for `CC(=O)N1CCCC(C(=O)c2ccc(Oc3ccccc3)cc2)C1` (stereo unspecified) was > 48.5 µg/mL; that for `CCCn1c(C(C)NS(=O)(=O)c2ccccc2)n[nH]c1=S` (stereo unspecified) was > 49 µg/mL; that for `Cc1cc(C)c2nc(N(CCN(C)C)C(=O)/C=C/c3cccs3)sc2c1.Cl` was 0.9 µg/mL. The value for `O=C1C(=O)N(Cc2cccs2)c2ccccc21` was > 36.5 µg/mL. The value for `COc1cccc(-c2nc(-c3ccncc3)no2)c1` was 3.5 µg/mL (≈ 13.8 µM); that for `COc1ccccc1CNC(=O)c1cc(C)nc2ccccc12` was 41.8 µg/mL (≈ 136 µM). For the compound `COCCNc1nc2nonc2nc1N1C[C@H]2CC[C@H]1C2`, the kinetic solubility is > 43.5 µg/mL. The value for `Cl.O=[N+]([O-])c1cccc(CNCc2ccccc2)c1` was 40.2 µg/mL; that for `O=C(O)CCNC(=O)/C(=C/c1ccco1)NC(=O)c1ccco1` was > 47.7 µg/mL.

`c1ccc(N2CCN(CC3CCCCC3)CC2)cc1` registered a solubility (kinetic) of 17 µg/mL (≈ 65.8 µM). The value for `COc1cc2c(cc1OC)CN(C(=S)Nc1ccc(Cl)cc1)CC2` was < 0.4 µg/mL. `O=C(COC(=O)c1cc([N+](=O)[O-])ccc1NCCO)Nc1cccnc1Cl` displayed a kinetic solubility of 9.1 µg/mL (≈ 23.1 µM).

Regarding `CCOc1ccc(N=C2NC(=O)SC2CC(=O)OC)cc1` (stereo unspecified), the solubility (kinetic) was 12.4 µg/mL (≈ 40.2 µM). The value for `O=C(CSc1ccccc1C(=O)O)NC12CC3CC(CC(C3)C1)C2` was > 51.8 µg/mL; that for `O=C(C1CCN(S(=O)(=O)c2ccccc2)CC1)N1CCCCC1` was 50.4 µg/mL (≈ 150 µM); that for `CC(C)C1Oc2ccccc2N(CC(=O)NC2CCCCC2)C1=O` (stereo unspecified) was > 49.6 µg/mL.

`Nc1ncc2c(n1)CCN(c1ccc([N+](=O)[O-])cc1)C2` registered a solubility (kinetic) of 5.9 µg/mL (≈ 21.7 µM). Turning to `Fc1cccc(NC(=S)NCc2ccccc2Cl)c1`, the solubility (kinetic) is 1.6 µg/mL (≈ 5.43 µM). The value for `Oc1ccccc1-c1nc(NC2CCCC2)c2ccccc2n1` was < 0.2 µg/mL; that for `Cc1ccc(-n2c(SCC(=O)N(C)C3CCS(=O)(=O)C3)nc3ccccc3c2=O)c(C)c1` (stereo unspecified) was > 70.7 µg/mL. The value for `Cn1cccc1-c1nc2ccc([N+](=O)[O-])cc2[nH]1` was 15.2 µg/mL (≈ 62.7 µM); that for `O=[N+]([O-])c1ccc(OCCn2cnc3ccccc32)cc1` was 7.6 µg/mL (≈ 26.8 µM). The value for `N#Cc1ccsc1NC(=O)CN1CCOCC1` was 28.6 µg/mL (≈ 114 µM); that for `Cc1ccc(C(=O)NCCN2CCN(C(=O)c3ccc(C)c(C)c3)CC2)cc1C` was 53.1 µg/mL (≈ 135 µM). The compound `COc1ccccc1NS(=O)(=O)c1cc(NC(=O)COc2ccccc2)ccc1N1CCOCC1` registered a solubility (kinetic) of 8.1 µg/mL (≈ 16.3 µM). The compound `O=C(OCC(=O)N1CCOCC1)c1ccccc1O` returned a solubility (kinetic) of 29.8 µg/mL (≈ 112 µM). The value for `Cc1c(NC(=O)COC(=O)c2ccc(Cl)nc2)c(=O)n(-c2ccccc2)n1C` was > 60.1 µg/mL; that for `CCCCOC(=O)c1sc2nc(C)cc(C)c2c1N` was 0.6 µg/mL (≈ 2.16 µM); that for `Cc1ccc(CN2CCN(C3CCCC3)C(CCO)C2)s1` (stereo unspecified) was 43.7 µg/mL (≈ 142 µM). The value for `Cc1ccc(C)n1-c1ccc(C(=O)/C=C/N(C)C)cc1` was 25.6 µg/mL (≈ 95.4 µM). The value for `C/C=C(\C)CN1CCCC(CO)(Cc2ccccc2)C1` (stereo unspecified) was 34.3 µg/mL (≈ 125 µM); that for `O=C(Nc1nc(-c2cccnc2)cs1)c1ccccc1F` was < 0.2 µg/mL; that for `CCN1C(=O)CS/C1=N\S(=O)(=O)c1ccccc1` was > 42.7 µg/mL. In the case of `CC1(C)C2CCC1(C)C(OC(=O)C[n+]1ccccc1N)C2.[Br-]` (stereo unspecified), the kinetic solubility is > 55.4 µg/mL. `N#CCCN(Cc1ccccc1)C(=O)c1nccnc1C(=O)O`: the solubility (kinetic) is > 46.5 µg/mL. The value for `CCOc1ccccc1NC(=O)c1ccc2c(c1)C(=O)N(CC(C)C)C2=O` was < 0.4 µg/mL.

Take `CC(NC(=O)c1ccc([N+](=O)[O-])o1)C1CC2CCC1C2` (stereo unspecified): the kinetic solubility was > 41.7 µg/mL.

Take `CCC(OCC(O)CN1CCCCC1)c1ccccc1.Cl` (stereo unspecified): the kinetic solubility was > 47.1 µg/mL.

`Nc1nccc(-c2cccs2)n1`: the solubility (kinetic) is > 26.6 µg/mL. The value for `O=C1NCCCCC1NS(=O)(=O)c1cccc2ccccc12` (stereo unspecified) was > 47.8 µg/mL; that for `CSc1ccccc1NC(=S)NCc1ccc(Cl)cc1` was 2.5 µg/mL (≈ 7.74 µM). Then `COC(=O)Nc1ccc(S(=O)(=O)NC2CCCCC2)cc1`, with 3.2 µg/mL (≈ 10.2 µM). Then `O=C(Nc1cccc(F)c1)Nc1ccc2c(c1)OCO2`, with 4.4 µg/mL (≈ 16 µM). Turning to `CC(C)Cn1c(N)c(C=O)c(=O)[nH]c1=O`, the solubility (kinetic) is > 31.7 µg/mL.

For the compound `CC1CCCC(NC(=O)c2ccc3c(c2)NC(=O)CS3)C1C` (stereo unspecified), the solubility (kinetic) was found to be 5.3 µg/mL (≈ 16.6 µM). Then `CC(=O)Nc1ccc(S(=O)(=O)N2CCNC(=O)C2)cc1`, with > 44.6 µg/mL.
